From US20160030407A1, “Method of Treating Inflammatory Lung Disease” (priority 2010, published 2016)
“And” between values parts separate entries of the source, which are not always exact repeats. Equal entries are not always repeated.

Legend:
[1] = Single i.v. dose toxicity: clinical chemistry; type: in vivo, Sprague-Dawley rats
From the text: On day 15, urine was collected on all surviving animals for urinalysis. The animals were euthanized and bled via cardiac puncture. Blood was collected for hematology, clinical chemistry, and coagulation analysis. Tissues were collected, weighed, and stored in 10% neutral-buffered formalin for possible future analysis.

[2] = system: autoimmune thyroiditis; assay: Experimental Autoimmune Thyroiditis (Example 16A): thyroid histopathology; type: in vivo, mice; settings: 0.05 mg/ml in drinking water (approx. 12.5 mg/kg/day); day 21; p=0.05
Experimental: Thyroiditis was induced by injection of thyroglobulin emulsified in complete Freund's adjuvant […]. On days 0 and 7, female mice received subcutaneous injection of 100 μg thyroglobulin (2 injections of 50 μg each). Control mice drank water. […] Mice were sacrificed on day 21.
Thyroid glands were removed. One lobe was fixed in formalin for histopathology. One lobe was frozen for immunohistochemistry. The extent of lymphocytic infiltration and destruction of the thyroid gland was assessed digitally. Initially, the entire thyroid lobe was examined. […] The final score was expressed as the percent of the thyroid area infiltrated by lymphocytes and damaged. The results are shown graphically in FIG. 42. […] Photomicrographs of hematoxylin- and eosin-stained thyroids from control and anatabine-treated mice are shown in FIG. 43A (control) and FIG. 43B (anatabine-treated).

[3] = Single i.v. dose toxicity, 14-day observation: general observations and mortality (incl. nicotine tolerability study); type: in vivo, Sprague-Dawley rats
Experimental: Body weight and food consumption was measured daily for 14 days. On day 15, urine was collected on all surviving animals. The animals were euthanized and bled via cardiac puncture, and blood was collected for analysis. Tissues were collected, weighed, evaluated for gross abnormalities, and stored in 10% neutral-buffered formalin.
The animals were weighed prior to dosing and received a single i.v. dose via the lateral tail vein of either test compound or vehicle at a volume of 5 mL/kg.
All animals were observed daily.

[4] = 0.1 mg/kg anatabine, nicotine 0.75 mg/kg
[5] = 0.1 mg/kg, gender F, group mean
[6] = 0.1 mg/kg, gender M, group mean
[7] = 0.75 mg/kg, gender F, group mean
[8] = 0.75 mg/kg, gender M, group mean
[9] = Anatabine 0.1 mg/kg single i.v. dose, female rats, individual animals B6-B10
[10] = Anatabine 0.1 mg/kg single i.v. dose, male rats, individual animals B1-B5
[11] = Anatabine 0.1 mg/kg, M, Mean, n 5
[12] = Anatabine 0.75 mg/kg single i.v. dose, female rats, individual animals C6-C10
[13] = Anatabine 0.75 mg/kg single i.v. dose, male rats, individual animals C1-C5
[14] = Anatabine 0.75 mg/kg, F, Mean, n 5

With C1=CCC(c2cccnc2)NC1 (racemic) [Anatabine, 1,2,3,6-tetrahydro-[2,3′]bipyridinyl] the “globulins vs vehicle controls, females” value [1, 4] was “slightly higher”, the “total protein vs vehicle controls, females” value [1, 4] was “somewhat higher” and the AST [1, 5] was 77.00 IU/L. For the same molecule, the “DIR BILIRUBIN” value [1, 5] was 0.00 mg/dL, the “TOT BILIRUBIN” value [1, 5] was 0.00 mg/dL and the AST [1, 6] was 96.00 IU/L. The BUN [1, 6] was 18.00 mg/dL, the “DIR BILIRUBIN” value [1, 6] was 0.00 mg/dL and the “TOT BILIRUBIN” value [1, 6] was 0.00 mg/dL. The “TOT PROTEIN” value [1, 6] was 6.10 g/dL, the “DIR BILIRUBIN” value [1, 7] was 0.00 mg/dL and the “TOT BILIRUBIN” value [1, 7] was 0.00 mg/dL. For the same molecule, the “DIR BILIRUBIN” value [1, 8] was 0.02 mg/dL, the “TOT BILIRUBIN” value [1, 8] was 0.02 mg/dL and the ALBUMIN [1, 9] was 3.6 g/dL (3×) and 3.5 g/dL and 3.8 g/dL. For the same molecule, the “ALK PHOSPHATASE” value [1, 9] was 140 IU/L and 220 IU/L, the ALT [1, 9] was 57 IU/L and 43 IU/L and 47 IU/L and 62 IU/L and 39 IU/L and the AST [1, 9] was 78 IU/L and 69 IU/L and 70 IU/L and 86 IU/L and 82 IU/L. The BUN [1, 9] was 21 mg/dL (2×) and 19 mg/dL (3×), the CHLORIDE [1, 9] was 99 mEq/L and 97 mEq/L and the CHOLESTEROL [1, 9] was 90 mg/dL and 74 mg/dL and 65 mg/dL and 66 mg/dL and 87 mg/dL. For the same molecule, the CREATININE [1, 9] was 0.4 mg/dL (3×) and 0.5 mg/dL (2×), the “DIR BILIRUBIN” value [1, 9] was 0 mg/dL and the GLOBULIN [1, 9] was 3.1 g/dL (3×) and 3 g/dL. For the same molecule, the GLUCOSE [1, 9] was 170 mg/dL and 220 mg/dL, the PHOSPHORUS [1, 9] was 8.5 mg/dL (2×) and 8.2 mg/dL and 7.4 mg/dL and 7.8 mg/dL and the POTASSIUM [1, 9] was 5.4 mEq/L and 6.3 mEq/L and 5.2 mEq/L and 5.5 mEq/L and 6.7 mEq/L. For the same molecule, the “TOT BILIRUBIN” value [1, 9] was 0 mg/dL, the “TOT PROTEIN” value [1, 9] was 6.7 g/dL (2×) and 6.3 g/dL and 6.9 g/dL and 6.6 g/dL and the ALBUMIN [1, 10] was 3.4 g/dL (2×) and 3.2 g/dL and 3.1 g/dL (2×). For the same molecule, the “ALK PHOSPHATASE” value [1, 10] was 470 IU/L, the ALT [1, 10] was 92 IU/L and 65 IU/L and 74 IU/L and 44 IU/L and 78 IU/L and the AST [1, 10] was 97 IU/L and 99 IU/L and 93 IU/L and 85 IU/L. The BUN [1, 10] was 18 mg/dL (2×) and 21 mg/dL and 14 mg/dL and 19 mg/dL, the CHLORIDE [1, 10] was 98 mEq/L and 97 mEq/L (2×) and 99 mEq/L (2×) and the CHOLESTEROL [1, 10] was 65 mg/dL and 64 mg/dL and 75 mg/dL and 56 mg/dL and 76 mg/dL. For the same molecule, the CREATININE [1, 10] was 0.4 mg/dL (3×) and 0.3 mg/dL (2×), the “DIR BILIRUBIN” value [1, 10] was 0 mg/dL and the GLOBULIN [1, 10] was 2.9 g/dL (2×) and 2.6 g/dL and 3.1 g/dL. For the same molecule, the GLUCOSE [1, 10] was 210 mg/dL, the POTASSIUM [1, 10] was 5.9 mEq/L and 6.5 mEq/L and 6.6 mEq/L and 6.9 mEq/L and 6.1 mEq/L and the “TOT BILIRUBIN” value [1, 10] was 0 mg/dL. For the same molecule, the “TOT PROTEIN” value [1, 10] was 6.3 g/dL (2×) and 5.8 g/dL and 5.9 g/dL and 6.2 g/dL, the CREATININE ([1]; Anatabine 0.1 mg/kg, F, Mean, n 5) was 0.44 mg/dL and the CHLORIDE [1, 11] was 98.00 mEq/L. For the same molecule, the CREATININE [1, 11] was 0.36 mg/dL, the POTASSIUM [1, 11] was 6.40 mEq/L and the ALBUMIN [1, 12] was 3.5 g/dL (2×) and 3.6 g/dL (2×) and 3.4 g/dL. The “ALK PHOSPHATASE” value [1, 12] was 130 IU/L and 160 IU/L, the ALT [1, 12] was 63 IU/L and 49 IU/L (2×) and 55 IU/L and 57 IU/L and the AST [1, 12] was 95 IU/L and 69 IU/L and 76 IU/L and 54 IU/L and 72 IU/L. The BUN [1, 12] was 15 mg/dL (3×) and 16 mg/dL (2×), the CHLORIDE [1, 12] was 97 mEq/L (2×) and 96 mEq/L and 99 mEq/L and the CHOLESTEROL [1, 12] was 66 mg/dL and 64 mg/dL and 63 mg/dL and 69 mg/dL and 87 mg/dL. For the same molecule, the CREATININE [1, 12] was 0.5 mg/dL (2×) and 0.4 mg/dL (3×), the “DIR BILIRUBIN” value [1, 12] was 0 mg/dL and the GLOBULIN [1, 12] was 2.7 g/dL and 3 g/dL (2×). The PHOSPHORUS [1, 12] was 9.7 mg/dL and 7.7 mg/dL and 9.6 mg/dL and 9.2 mg/dL and 7 mg/dL, the POTASSIUM [1, 12] was 5.5 mEq/L and 5.9 mEq/L and 6 mEq/L and 5.7 mEq/L and 6.3 mEq/L and the “TOT BILIRUBIN” value [1, 12] was 0 mg/dL. The “TOT PROTEIN” value [1, 12] was 6.3 g/dL (2×) and 6.2 g/dL and 6.6 g/dL and 6.5 g/dL, the ALBUMIN [1, 13] was 3.4 g/dL (2×) and 3.1 g/dL and 3.2 g/dL and 3.3 g/dL and the ALT [1, 13] was 75 IU/L and 57 IU/L and 65 IU/L and 50 IU/L and 87 IU/L. For the same molecule, the AST [1, 13] was 66 IU/L and 97 IU/L and 90 IU/L and 92 IU/L, the BUN [1, 13] was 15 mg/dL and 18 mg/dL and 12 mg/dL and 17 mg/dL and 21 mg/dL and the CHLORIDE [1, 13] was 98 mEq/L and 99 mEq/L (2×) and 100 mEq/L and 97 mEq/L. For the same molecule, the CHOLESTEROL [1, 13] was 69 mg/dL (2×) and 60 mg/dL and 54 mg/dL and 62 mg/dL, the CREATININE [1, 13] was 0.4 mg/dL (3×) and 0.3 mg/dL (2×) and the “DIR BILIRUBIN” value [1, 13] was 0 mg/dL (4×) and 0.1 mg/dL. The GLOBULIN [1, 13] was 2.6 g/dL and 2.7 g/dL and 2.9 g/dL, the GLUCOSE [1, 13] was 160 mg/dL and the PHOSPHORUS [1, 13] was 11 mg/dL and 10 mg/dL. For the same molecule, the POTASSIUM [1, 13] was 6.3 mEq/L (2×) and 5.4 mEq/L and 6 mEq/L and 6.6 mEq/L, the SODIUM [1, 13] was 150 mEq/L and the “TOT BILIRUBIN” value [1, 13] was 0 mg/dL (4×) and 0.1 mg/dL. The “TOT PROTEIN” value [1, 13] was 6.2 g/dL and 5.7 g/dL and 5.9 g/dL and 6.1 g/dL and 6.3 g/dL, the CHLORIDE [1, 14] was 98.00 mEq/L and the CREATININE [1, 14] was 0.44 mg/dL. For the same molecule, the CREATININE ([1]; Anatabine 0.75 mg/kg, M, Mean, n 5) was 0.36 mg/dL, the “globulins vs vehicle controls, males” value ([1]; all anatabine dose levels, nicotine 0.75 mg/kg) was “marginally higher” and the “total protein vs vehicle controls, males” value ([1]; all anatabine treatment groups, nicotine 0.75 mg/kg) was “slightly increased”. For the same molecule, the “albumin levels vs control” value ([1]; males 0.75 and […], females 0.1 and 0.75 mg/kg anatabine) was “slight increases in albumin levels” and the “severity of thyroiditis (percent of thyroid area infiltrated and damaged)” value [2] was “less severe thyroiditis than control mice”.

For CN1CCCC1c1cccnc1.O=C(O)C(O)C(O)C(=O)O (single isomer, unassigned; (-)) [Nicotine, (−) Nicotine hydrogen tartrate, reference compound], the “time until return to normal, tolerability study” value ([3]; female rats, nicotine 1.25 and 1.0 mg/kg i.v., post dose) was no more than 20 min, the “observations after dosing, tolerability study” value ([3]; female rats, single i.v. nicotine 1.25 mg/kg (1) and 1.0 mg/kg (3)) was “experienced severe tremors upon completion of dosing” and the “time until return to normal” value ([3]; rat, nicotine 0.75 mg/kg i.v., post dose) was 15 to 20 min. For the same molecule, the observations after dosing ([3]; rat, single i.v. 0.75 mg/kg nicotine) was “experienced tremors upon compound administration” and the mortality ([3]; rat, single i.v. 0.75 mg/kg nicotine (5 males, 5 females)) was “One male and two females died post dose”.
